From ChEMBL document CHEMBL1143224, “An asymmetric C8/C8'-tripyrrole-linked sequence-selective pyrrolo[2,1-c][1,4]benzodiazepine (PBD) dimer DNA interstrand cross-linking agent spanning 11 DNA base pairs” (2008) come the findings set out here.

The test system of one assay is Escherichia coli. Description: Induction of cross linking in DS pUC18 plasmid.
For the next assay, the system named is K562. Description: Cytotoxicity against human K562 cells. The assay is classed as functional.
A short description of assay [1]: Cytotoxicity against human NCI60 cells. The assay is classed as functional.

SMILES strings stand for the structures.

In the assay on Escherichia coli, `C=C1C[C@H]2C=Nc3cc(OCCCOc4cc5c(cc4OC)C(=O)N4CC(=C)C[C@H]4C=N5)c(OC)cc3C(=O)N2C1` [SJG-136] showed an XL50 of 0.06 µM. In the assay with K562, the GI50 (in general, the concentration at which growth is held to half of that of the control) is 0.008 µM. In assay [1], the concentration for 50% growth inhibition (GI50) turned out to be 0.007 µM and the TGI (in general, the concentration at which net growth stops) is 0.087 µM.

In the case of `COc1cc2c(cc1OCCCNC(=O)c1cc(NC(=O)c3cc(NC(=O)c4cc(NC(=O)CCCOc5cc6c(cc5OC)C(=O)N5CCC[C@H]5C=N6)cn4C)cn3C)cn1C)N=C[C@@H]1CCCN1C2=O`, in the assay on Escherichia coli, the XL50 came to 0.23 µM. This molecule also gave a GI50 with K562 of 0.037 µM. Further, in assay [1], the GI50 was 0.014 µM, the LC50 (usually the concentration that kills 50% of the test population) stood at 22.9 µM and the TGI was 0.49 µM.
